From patent publication US20250320228A1, “PYRIDO[3,2-D]PYRIMIDINES AS HPK1 INHIBITORS” (Merck Patent GmbH, priority 2022, published 2025)

What was measured:
HPK1 pSLP76 (Ser376) = assay: Cellular assay phospho-SLP-76 (Ser376); type: cell-based, human; conditions: SLP76 Ser376 phosphorylation after αCD3/αCD28 stimulation; Jurkat (human) or EL-4 (mouse) cells, table does not say which; read-out: HPK1 pSLP76 IC50
Protocol: Cellular Assay—Phospho-SLP-76 (Ser376).
Inhibition of HPK1 enzymatic activity in cells was determined by detection of SLP76 phosphorylation at Ser376 residue in lysate from Jurkat (human) and EL-4 (mouse) cells. Jurkat and EL-4 cells express both HPK1 and SLP76 naturally. All cells were cultured in RPMI 1640 media containing 10% heat inactivated fetal bovine serum (FBS) and 1× Penicillin-Streptomycin. In either Jurkat or El-4 assay, cells were pre-incubated with test compounds prior to T cell stimulation by respective αCD3/αCD28 Dynabeads™. For detection, plates were read on the Envision and percent inhibition and IC50 were determined by Smart fit in Genedata Analyzer.
For Jurkat cells: 35 μL cell suspension were dispensed at a density of 30,000 cells/well in 384-well plates containing HBSS (Gibco, 14025076)+0.1% BSA). 10-point logarithmic serial dilution of test compounds in DMSO were prepared by a Hamilton automated liquid handling robot and 35 nL was transferred into each well by an Echo liquid handler. After 60 min. pre-incubation, the cells were stimulated by adding 5 μL human T activator αCD3/αCD28 Dynabeads™ (Gibco, 11132D) at 1.2×107 beads/ml for 15 minutes at 37° C. Detection of Ser376 phosphorylation status was accomplished by first adding 10 μL of 5× AlphaLISA lysis buffer (Perkin Elmer, ALSU-PSLP-A500) to each well of the cell plate using a Multidrop Combi (5840300), followed by 20 minutes shaking. 10 μL cell lysate from each treatment were then transferred to a white 384-well plate (Corning 3572) and incubated with AlphaLISA acceptor beads for one hour (AlphaLISA SureFire Ultra p-SLP76 (Ser376), Perkin Elmer, ALSU-PSLP-A500), and donor beads for additional 2 hours at room temperature in the dark. […]

[1] = target: full-length human HPK1 (MAP4K1) (Homo sapiens (Human), UniProt Q92918); assay: HPK1 kinase assay (biochemical, ADP-Glo); conditions: GST-HPK1 3.2 nM, 10 μM ATP, MBP substrate, ADP-Glo; read-out: HPK1 enzymatic IC50
Source text: HPK1 kinase assay (Biochemical assay).
A recombinant fusion protein consisting of full-length human HPK1 (MAP4K1) with an N-terminal Glutatione S-transferase (GST) tag was produced in insect cells Sf21 using the baculovirus expression system. GST-HPK1 protein was purified from cell lysates by glutathione Sepharose affinity chromatography. The assay is run in three continuous steps: 1) the HPK1 enzymatic kinase reaction, 2) an ATP depletion, and 3) the ADP detection, the steps 2 and 3 are performed with ADP-Glo™ Kinase Assay kit from Promega (V9101). Test compounds were prepared by 10-point serial dilution in dimethyl sulfoxide (DMSO) and 100 nL of each dilution was spotted onto a 384-well Optiplate (Perkin Elmer and Cat #6007299) by Labcyte Echo. 5 μL kinase reaction buffer (0.02% Brij-35, 2 mM DTT, 50 mM HEPES pH 7.5, MgCl2 10 mM, BSA 0.01% and β-glycerophosphate 12.5 mM) containing HPK1 (3.2 nM) enzyme was transferred to each well and incubated for 15 minutes at room temperature at 60% humidity. The enzymatic reaction was started by adding 5 μl of Start-Mix (10 μM ATP and 3.235 μM MBP). After 120 minutes, the reaction was stopped by adding 5 μL of ADP-Glo reagent (Promega, V9101) and incubating for 40 min. in the dark at 23° C. To determine the level of ADP, 10 μl ADP-Glo Detection solution was added and incubated for 1 hour at 23° C. in the dark. The plate was transferred to a Perkin Elmer EnVision (2104 Multilabel Reader) for luminescence detection and percent inhibition activity and IC50 value were determined using Genedata Screener.

Sequence of full-length human HPK1 (MAP4K1) (Q92918 whole entry): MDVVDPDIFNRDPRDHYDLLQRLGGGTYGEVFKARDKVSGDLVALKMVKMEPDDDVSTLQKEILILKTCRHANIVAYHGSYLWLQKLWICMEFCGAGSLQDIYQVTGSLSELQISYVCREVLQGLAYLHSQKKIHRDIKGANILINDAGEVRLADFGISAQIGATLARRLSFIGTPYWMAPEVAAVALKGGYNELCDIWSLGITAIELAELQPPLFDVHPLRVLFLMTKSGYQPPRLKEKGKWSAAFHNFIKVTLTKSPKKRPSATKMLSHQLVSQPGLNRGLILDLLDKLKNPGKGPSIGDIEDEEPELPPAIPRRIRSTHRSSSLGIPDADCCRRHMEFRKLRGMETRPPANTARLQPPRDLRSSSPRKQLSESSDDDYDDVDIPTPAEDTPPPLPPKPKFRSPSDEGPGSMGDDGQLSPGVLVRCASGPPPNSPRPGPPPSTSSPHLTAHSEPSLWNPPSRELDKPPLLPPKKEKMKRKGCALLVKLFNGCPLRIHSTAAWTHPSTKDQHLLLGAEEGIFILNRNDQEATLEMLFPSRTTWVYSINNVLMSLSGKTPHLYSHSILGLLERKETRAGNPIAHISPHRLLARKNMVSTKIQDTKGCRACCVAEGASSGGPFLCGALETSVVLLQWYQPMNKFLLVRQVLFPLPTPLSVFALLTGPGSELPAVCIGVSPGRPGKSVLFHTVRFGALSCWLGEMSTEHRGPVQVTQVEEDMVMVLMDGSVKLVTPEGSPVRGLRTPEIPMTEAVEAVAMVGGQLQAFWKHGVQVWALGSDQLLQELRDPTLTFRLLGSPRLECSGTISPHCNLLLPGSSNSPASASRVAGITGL

IC50 (HPK1 pSLP76 (Ser376)) [nM]	IC50 [1] [nM]	Structure (SMILES)
500 to 1000	< 100	C[C@@H](c1ccc(-c2cc(C(N)=O)c3ncnc(N[C@H]4CCCNC4)c3n2)cc1)N1CCOCC1 (single isomer, unassigned) [Example 53]
–	100 to 1000	NC(=O)c1cc(C=C2CCOC2)nc2c(N[C@H]3CCCNC3)ncnc12 (stereo in doubt) [Example 80, 6-{[(3Z)-oxolan-3-ylidene]methyl}-4-{[(3S)-piperidin-3-yl]amino}pyrido[3,2-d]pyrimidine-8-carboxamide]
< 500	< 100	CC(C)(O)COc1ccc(-c2cc(C(N)=O)c3ncnc(N[C@@H]4CNC[C@@H](F)C4)c3n2)c(C#N)c1 [Example 1, 6-(2-cyano-4-(2-hydroxy-2-methylpropoxy)phenyl)-4-(((3S,5S)-5-fluoropiperidin-3-yl)amino)pyrido[3,2-d]pyrimidine-8-carboxamide]
–	< 100	N#Cc1c(-c2cc(C(N)=O)c3ncnc(N[C@@H]4CNC[C@@H](F)C4)c3n2)ccc2ncccc12 [Example 2, 6-(5-cyanoquinolin-6-yl)-4-{[(3S,5S)-5-fluoropiperidin-3-yl]amino}pyrido[3,2-d]pyrimidine-8-carboxamide]
< 500	< 100	Cc1nn(C)cc1-c1cc(C(N)=O)c2ncnc(N[C@@H]3CNC[C@@H](F)C3)c2n1 [Example 3, 6-(1,3-dimethyl-1H-pyrazol-4-yl)-4-(((3S,5S)-5-fluoropiperidin-3-yl)amino)pyrido[3,2-d]pyrimidine-8-carboxamide]
500 to 1000	< 100	NC(=O)c1cc(-c2cnn(C3CCOCC3)c2)nc2c(N[C@@H]3CNC[C@@H](F)C3)ncnc12 [Example 4, 4-(((3S,5S)-5-fluoropiperidin-3-yl)amino)-6-(1-(tetrahydro-2H-pyran-4-yl)-1H-pyrazol-4-yl)pyrido[3,2-d]pyrimidine-8-carboxamide]
< 500	< 100	CC(=O)c1ccc(-c2cc(C(N)=O)c3ncnc(N[C@@H]4CNC[C@@H](F)C4)c3n2)s1 [Example 5, 6-(5-acetylthiophen-2-yl)-4-(((3S,5S)-5-fluoropiperidin-3-yl)amino)pyrido[3,2-d]pyrimidine-8-carboxamide]
–	< 100	Cc1cc(-c2cc(C(N)=O)c3ncnc(N[C@@H]4CNC[C@@H](F)C4)c3n2)sn1 [Example 6, 4-{[(3S,5S)-5-fluoropiperidin-3-yl]amino}-6-(3-methyl-1,2-thiazol-5-yl)pyrido[3,2-d]pyrimidine-8-carboxamide]
< 500	< 100	Cn1cc(-c2cc(C(N)=O)c3ncnc(N[C@@H]4CNC[C@@H](F)C4)c3n2)cc1C#N [Example 7, 6-(5-cyano-1-methyl-1H-pyrrol-3-yl)-4-{[(3S,5S)-5-fluoropiperidin-3-yl]amino}pyrido[3,2-d]pyrimidine-8-carboxamide]
–	100 to 1000	N#Cc1cc(C(F)F)ccc1-c1cc(C(N)=O)c2ncnc(N[C@@H]3CNCC(F)(F)C3)c2n1 [Example 10, (S)-6-(2-cyano-4-(difluoromethyl)phenyl)-4-((5,5-difluoropiperidin-3-yl)amino)pyrido[3,2-d]pyrimidine-8-carboxamide]
–	100 to 1000	COc1ccc(-c2cc(C(N)=O)c3ncnc(N[C@@H]4CNCC(F)(F)C4)c3n2)cc1 [Example 11, (S)-4-((5,5-difluoropiperidin-3-yl)amino)-6-(4-methoxyphenyl)pyrido[3,2-d]pyrimidine-8-carboxamide]
> 1000	–	N#C[C@H]1COCCN1Cc1ccc(-c2cc(C(N)=O)c3ncnc(N[C@H]4CCCNC4)c3n2)cc1 [Example 14]
< 500	–	NC(=O)c1cc(-c2ccc(CN3CCOC[C@H]3C(F)(F)F)cc2)nc2c(N[C@H]3CCCNC3)ncnc12 [Example 15]
–	< 100	COCCn1cc(-c2cc(C(N)=O)c3ncnc(N[C@H]4CCCNC4)c3n2)cn1 [Example 19, (S)-6-(1-(2-methoxyethyl)-1H-pyrazol-4-yl)-4-(piperidin-3-ylamino)pyrido[3,2-d]pyrimidine-8-carboxamide]
> 1000	–	NC(=O)c1cc(-c2ccc(CN3CCOCC3)cc2)nc2c(NC34CNCC3C4)ncnc12 (stereo not drawn) [Example 20]
–	100 to 1000	NC(=O)c1cc(-c2ccc(CN3CCOCC3)cc2)nc2c(N[C@H]3CCCCNC3)ncnc12 [Example 21]
–	< 100	NCCNc1ncnc2c(C(N)=O)cc(-c3ccc(CN4CCOCC4)cc3)nc12 [Example 23, 4-((2-aminoethyl)amino)-6-(4-(morpholinomethyl)phenyl)pyrido[3,2-d]pyrimidine-8-carboxamide]
< 500	–	NC(=O)c1cc(-c2cc(F)c(OCC3(O)CCC3)c(F)c2)nc2c(N[C@H]3CCCNC3)ncnc12 [Example 39, (S)-6-(3,5-difluoro-4-((1-hydroxycyclobutyl)methoxy)phenyl)-4-(piperidin-3-ylamino)pyrido[3,2-d]pyrimidine-8-carboxamide]
> 1000	–	CN1CCc2cc(-c3cc(C(N)=O)c4ncnc(N[C@H]5CCCNC5)c4n3)nn2CC1=O [Example 45, (S)-6-(6-methyl-7-oxo-5,6,7,8-tetrahydro-4H-pyrazolo[1,5-d][1,4]diazepin-2-yl)-4-(piperidin-3-ylamino)pyrido[3,2-d]pyrimidine-8-carboxamide]
–	< 100	NC(=O)c1cc(-c2ccc(CN3CC[C@H](F)C3)cc2)nc2c(N[C@H]3CCCNC3)ncnc12 [Example 60, 6-(4-[[(3S)-3-fluoropyrrolidin-1-yl]methyl]phenyl)-4-[(3S)-piperidin-3-ylamino]pyrido[3,2-d]pyrimidine-8-carboxamide]
–	< 100	NC(=O)c1cc(-c2cnn(C(F)F)c2)nc2c(N[C@H]3CCCNC3)ncnc12 [Example 77, 6-[1-(difluoromethyl)-1H-pyrazol-4-yl]-4-{[(3S)-piperidin-3-yl]amino}pyrido[3,2-d]pyrimidine-8-carboxamide]
–	< 100	CC(C)n1cc(-c2cc(C(N)=O)c3ncnc(N[C@H]4CCCNC4)c3n2)cn1 [Example 78, 4-{[(3S)-piperidin-3-yl]amino}-6-[1-(propan-2-yl)-1H-pyrazol-4-yl]pyrido[3,2-d]pyrimidine-8-carboxamide]
–	> 1000	NC(=O)c1cc(CC2CCOC2)nc2c(N[C@H]3CCCNC3)ncnc12 (stereo partly drawn) [Example 84, 6-[(oxolan-3-yl)methyl]-4-{[(3S)-piperidin-3-yl]amino}pyrido[3,2-d]pyrimidine-8-carboxamide]
–	> 1000	NC(=O)c1cc(C=C2CCOCC2)nc2c(N[C@H]3CCCNC3)ncnc12 [Example 85, 6-[(oxan-4-ylidene)methyl]-4-{[(3S)-piperidin-3-yl]amino}pyrido[3,2-d]pyrimidine-8-carboxamide]
–	100 to 1000	NC(=O)c1cc(-c2cccnc2C(F)(F)F)nc2c(N[C@H]3CCCNC3)ncnc12 [Example 87, 4-{[(3S)-piperidin-3-yl]amino}-6-[2-(trifluoromethyl)pyridin-3-yl]pyrido[3,2-d]pyrimidine-8-carboxamide]
–	> 1000	NC(=O)c1cc(CC2CCOCC2)nc2c(N[C@H]3CCCNC3)ncnc12 [Example 88, 6-[(oxan-4-yl)methyl]-4-{[(3S)-piperidin-3-yl]amino}pyrido[3,2-d]pyrimidine-8-carboxamide]

Structure (SMILES)	IC50 (HPK1 pSLP76 (Ser376)) [nM]	IC50 [1] [nM]
CN1CC=C(c2cc(C(N)=O)c3ncnc(N[C@H]4CCCNC4)c3n2)CC1 [Example 73, 6-(1-methyl-1,2,3,6-tetrahydropyridin-4-yl)-4-{[(3S)-piperidin-3-yl]amino}pyrido[3,2-d]pyrimidine-8-carboxamide]	–	> 1000
